Test results published in ChEMBL document CHEMBL1132141, “Emerging therapies for the prevention or treatment of postmenopausal osteoporosis” (1999).

Species on record: Rattus norvegicus
Experiment: Effective concentration against cholesterol-lowering agent in OVX rats
Assay type: functional

In the case of `C[C@H]1CCC[C@H](O)CCCCCc2cc(O)cc(O)c2C(=O)O1` [ZERANOL], the ED50 is reported as 0.2 mg/kg.
